In patent US20060252807A1, “Novel ortho-terphenyl inhibitors of p38 kinase and methods of treating inflammatory disorders” (Kalypsys, Inc., priority 2005, published 2006):

biological target: T1, active p38 alpha enzyme (Upstate Biotechnology) (Homo sapiens, UniProt Q16539); test: p38α biochemical assay (ATP turnover, luminescent detection, Cambrex PKlight); details: p38α biochemical assay, Table 1 Biological Activity
T1 construct: purchased Upstate Biotechnology
Method in brief: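 Compounds in DMSO are added to active p38 alpha with MapkapK2 whole protein and ATP at 1.4 uM final. Reactions then run for 2 hours at 30C. A luminescent reagent is added last to quantify total ATP consumed.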

T1 sequence (Q16539 whole entry): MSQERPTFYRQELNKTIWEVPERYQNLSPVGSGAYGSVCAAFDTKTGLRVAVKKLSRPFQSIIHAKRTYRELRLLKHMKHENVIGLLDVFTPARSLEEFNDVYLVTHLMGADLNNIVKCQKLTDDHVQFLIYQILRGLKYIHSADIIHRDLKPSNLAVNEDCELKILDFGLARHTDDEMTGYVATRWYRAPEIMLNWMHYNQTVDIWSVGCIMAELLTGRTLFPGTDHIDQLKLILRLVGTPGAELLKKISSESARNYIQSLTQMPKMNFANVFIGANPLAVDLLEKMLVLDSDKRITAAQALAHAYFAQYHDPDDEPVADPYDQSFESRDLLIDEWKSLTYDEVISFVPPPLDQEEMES

Row | IC50 | Structure (SMILES)
1 | ≤ 1000 nM | CC(C)NC(=O)c1csc(-c2oc(CN3CCN(C(=O)c4ccc(O)cc4O)CC3)nc2-c2ccc(F)cc2)n1 [Example 385]
2 | > 1000 nM | Cc1ccc(C(=O)N2CCN(Cc3nc(-c4ccc(F)cc4)c(-c4nc(C(=O)NC(C)C)cs4)o3)CC2)cc1F [Example 386]
3 | > 1000 nM | Cc1ccc(F)cc1C(=O)N1CCN(Cc2nc(-c3ccc(F)cc3)c(-c3nc(C(=O)NC(C)C)cs3)o2)CC1 [Example 387]
4 | > 1000 nM | CC(C)NC(=O)c1csc(-c2oc(CN3CCN(C(=O)c4ccnc(Cl)c4)CC3)nc2-c2ccc(F)cc2)n1 [Example 391]
5 | > 1000 nM | CC(C)NC(=O)c1csc(-c2oc(CN3CCN(C(=O)c4c(F)cccc4F)CC3)nc2-c2ccc(F)cc2)n1 [Example 394]
6 | > 1000 nM | CC(C)NC(=O)c1csc(-c2oc(CN3CCN(C(=O)c4cccc(F)c4F)CC3)nc2-c2ccc(F)cc2)n1 [Example 395]
7 | > 1000 nM | CC(C)NC(=O)c1csc(-c2oc(CN3CCN(C(=O)c4ccc(F)cc4F)CC3)nc2-c2ccc(F)cc2)n1 [Example 396]
8 | > 1000 nM | CC(C)NC(=O)c1csc(-c2oc(CN3CCN(C(=O)c4cc(F)cc(F)c4)CC3)nc2-c2ccc(F)cc2)n1 [Example 397]
9 | > 1000 nM | CC(C)NC(=O)c1csc(-c2oc(CN3CCN(C(=O)c4ccc(F)c(F)c4)CC3)nc2-c2ccc(F)cc2)n1 [Example 398]
10 | > 1000 nM | CC(C)NC(=O)c1csc(-c2oc(CN3CCN(C(=O)/C=C/c4cccc(O)c4)CC3)nc2-c2ccc(F)cc2)n1 [Example 405]
11 | ≤ 1000 nM | Cc1ccccc1CCC(=O)N1CCN(Cc2nc(-c3ccc(F)cc3)c(-c3nc(C(=O)NC(C)C)cs3)o2)CC1 [Example 409]
12 | ≤ 1000 nM | Cc1cccc(CCC(=O)N2CCN(Cc3nc(-c4ccc(F)cc4)c(-c4nc(C(=O)NC(C)C)cs4)o3)CC2)c1 [Example 410]
13 | ≤ 1000 nM | CC(C)NC(=O)c1csc(-c2oc(CN3CCN(C(=O)CCc4ccccc4O)CC3)nc2-c2ccc(F)cc2)n1 [Example 418]
14 | ≤ 1000 nM | COc1ccccc1CC(=O)N1CCN(Cc2nc(-c3ccc(F)cc3)c(-c3nc(C(=O)NC(C)C)cs3)o2)CC1 [Example 419]
15 | ≤ 1000 nM | COc1cccc(O)c1C(=O)N1CCN(Cc2nc(-c3ccc(F)cc3)c(-c3nc(C(=O)NC(C)C)cs3)o2)CC1 [Example 423]
16 | ≤ 1000 nM | COc1ccc(O)c(C(=O)N2CCN(Cc3nc(-c4ccc(F)cc4)c(-c4nc(C(=O)NC(C)C)cs4)o3)CC2)c1 [Example 424]
17 | ≤ 1000 nM | COc1ccc(C(=O)N2CCN(Cc3nc(-c4ccc(F)cc4)c(-c4nc(C(=O)NC(C)C)cs4)o3)CC2)c(O)c1 [Example 425]
18 | ≤ 1000 nM | COc1ccc(C(=O)N2CCN(Cc3nc(-c4ccc(F)cc4)c(-c4nc(C(=O)NC(C)C)cs4)o3)CC2)cc1O [Example 426]
19 | ≤ 1000 nM | CC(C)NC(=O)c1csc(-c2oc(CN3CCN(C(=O)c4cc(O)c(O)c(O)c4)CC3)nc2-c2ccc(F)cc2)n1 [Example 427]
20 | ≤ 1000 nM | CC(C)NC(=O)c1csc(-c2oc(CN3CCN(C(=O)Cc4ccc(O)c(F)c4)CC3)nc2-c2ccc(F)cc2)n1 [Example 428]
21 | > 1000 nM | CC(C)NC(=O)c1csc(-c2oc(CN3CCN(C(=O)Cc4c(F)cccc4F)CC3)nc2-c2ccc(F)cc2)n1 [Example 430]
22 | ≤ 1000 nM | CC(C)NC(=O)c1csc(-c2oc(CN3CCN(C(=O)c4ccc(Cl)cc4O)CC3)nc2-c2ccc(F)cc2)n1 [Example 432]

The next lines start with the compound.

Row | Structure (SMILES) | IC50
23 | CC(C)NC(=O)c1csc(-c2oc(CN3CCN(C(=O)c4ccccc4Cl)CC3)nc2-c2ccc(F)cc2)n1 [Example 388] | > 1000 nM
24 | CC(C)NC(=O)c1csc(-c2oc(CN3CCN(C(=O)c4ccc(Cl)nc4)CC3)nc2-c2ccc(F)cc2)n1 [Example 389] | > 1000 nM
25 | CC(C)NC(=O)c1csc(-c2oc(CN3CCN(C(=O)c4cccnc4Cl)CC3)nc2-c2ccc(F)cc2)n1 [Example 390] | > 1000 nM
26 | CC(C)NC(=O)c1csc(-c2oc(CN3CCN(C(=O)c4cc(Cl)ccn4)CC3)nc2-c2ccc(F)cc2)n1 [Example 392] | > 1000 nM
27 | CC(C)NC(=O)c1csc(-c2oc(CN3CCN(C(=O)c4ccncc4Cl)CC3)nc2-c2ccc(F)cc2)n1 [Example 393] | > 1000 nM
28 | CC(CC(=O)N1CCN(Cc2nc(-c3ccc(F)cc3)c(-c3nc(C(=O)NC(C)C)cs3)o2)CC1)CC(C)(C)C (stereo not drawn) [Example 399] | ≤ 1000 nM
29 | CC(C)NC(=O)c1csc(-c2oc(CN3CCN(C(=O)c4cc5ccccc5o4)CC3)nc2-c2ccc(F)cc2)n1 [Example 400] | > 1000 nM
30 | CC(C)NC(=O)c1csc(-c2oc(CN3CCN(C(=O)C4CCc5ccccc54)CC3)nc2-c2ccc(F)cc2)n1 (stereo not drawn) [Example 401] | ≤ 1000 nM
31 | CC(C)NC(=O)c1csc(-c2oc(CN3CCN(C(=O)C(Cl)(Cl)Cl)CC3)nc2-c2ccc(F)cc2)n1 [Example 402] | ≤ 1000 nM
32 | CC(C)NC(=O)c1csc(-c2oc(CN3CCN(C(=O)/C=C/c4ccccc4O)CC3)nc2-c2ccc(F)cc2)n1 [Example 403] | ≤ 1000 nM
33 | CC(=O)c1ccc(C(=O)N2CCN(Cc3nc(-c4ccc(F)cc4)c(-c4nc(C(=O)NC(C)C)cs4)o3)CC2)cc1 [Example 404] | > 1000 nM
34 | CC(=O)c1cccc(C(=O)N2CCN(Cc3nc(-c4ccc(F)cc4)c(-c4nc(C(=O)NC(C)C)cs4)o3)CC2)c1 [Example 406] | > 1000 nM
35 | CC(=O)c1ccccc1C(=O)N1CCN(Cc2nc(-c3ccc(F)cc3)c(-c3nc(C(=O)NC(C)C)cs3)o2)CC1 [Example 407] | ≤ 1000 nM
36 | CC(C)NC(=O)c1csc(-c2oc(CN3CCN(C(=O)c4ccc(C(C)C)cc4)CC3)nc2-c2ccc(F)cc2)n1 [Example 408] | > 1000 nM
37 | CCC(C(=O)N1CCN(Cc2nc(-c3ccc(F)cc3)c(-c3nc(C(=O)NC(C)C)cs3)o2)CC1)c1ccccc1 (stereo not drawn) [Example 411] | > 1000 nM
38 | Cc1cc(C)c(C(=O)N2CCN(Cc3nc(-c4ccc(F)cc4)c(-c4nc(C(=O)NC(C)C)cs4)o3)CC2)c(C)c1 [Example 412] | ≤ 1000 nM
39 | CCCc1ccc(C(=O)N2CCN(Cc3nc(-c4ccc(F)cc4)c(-c4nc(C(=O)NC(C)C)cs4)o3)CC2)cc1 [Example 413] | > 1000 nM
40 | CC(C)NC(=O)c1csc(-c2oc(CN3CCN(C(=O)c4ccc5c(c4)OCO5)CC3)nc2-c2ccc(F)cc2)n1 [Example 414] | > 1000 nM
41 | CC(C)NC(=O)c1csc(-c2oc(CN3CCN(C(=O)/C=C/c4ccccc4F)CC3)nc2-c2ccc(F)cc2)n1 [Example 415] | > 1000 nM
42 | CCOc1ccccc1C(=O)N1CCN(Cc2nc(-c3ccc(F)cc3)c(-c3nc(C(=O)NC(C)C)cs3)o2)CC1 [Example 416] | > 1000 nM
43 | Cc1ccccc1OCC(=O)N1CCN(Cc2nc(-c3ccc(F)cc3)c(-c3nc(C(=O)NC(C)C)cs3)o2)CC1 [Example 417] | > 1000 nM
44 | CC(C)NC(=O)c1csc(-c2oc(CN3CCN(C(=O)C(C)c4ccc(O)cc4)CC3)nc2-c2ccc(F)cc2)n1 (stereo not drawn) [Example 420] | > 1000 nM
45 | CC(C)NC(=O)c1csc(-c2oc(CN3CCN(C(=O)c4ccccc4[N+](=O)[O-])CC3)nc2-c2ccc(F)cc2)n1 [Example 421] | > 1000 nM
46 | CC(C)NC(=O)c1csc(-c2oc(CN3CCN(C(=O)c4cccc([N+](=O)[O-])c4)CC3)nc2-c2ccc(F)cc2)n1 [Example 422] | > 1000 nM
47 | Cc1cc(C(=O)N2CCN(Cc3nc(-c4ccc(F)cc4)c(-c4nc(C(=O)NC(C)C)cs4)o3)CC2)cc(Cl)n1 [Example 429] | > 1000 nM
48 | CC(C)NC(=O)c1csc(-c2oc(CN3CCN(C(=O)c4cccc5ccccc45)CC3)nc2-c2ccc(F)cc2)n1 [Example 431] | ≤ 1000 nM
